In one test the test system is human plasma HDL. Put plainly: human plasma HDL remodeling (NDGGE, immunoblot for human apoA-I). It counts as biochemical. As to conditions: human plasma in vitro; Western blot for apoA-I; FIGS. 1 and 2a. An excerpt: As an initial phase of investigation, we evaluated in vitro the effectiveness of our cyclic D,L-α-peptides to remodel mature human plasma HDLs into lipid-poor HDL (FIG. 1 and FIG. 2a). Lipid-poor HDL particles are key acceptors of cholesterol in reverse cholesterol transport and are thus crucial for combating atherosclerosis. In fact, with respect to the cholesterol efflux capacity of human sera, the levels of lipid-poor HDL correlate much better than the levels of HDL-cholesterol or apoA-I. Briefly, our assay involved incubating human plasma with a peptide, after which the plasma sample was subjected to non-denaturing gradient gel electrophoresis (NDGGE) to separate the HDL subspecies and then immunoblotted for human apoA-I. The ranked activities of the cyclic D,L-α-peptides in promoting formation of lipid-poor HDL are shown in FIG. 1. It should be noted that there are inherent variabilities associated with electrophoretic transfer, staining, and densitometric quantitation, so the peptide ranking should be viewed as an approximate guide to relative plasma HDL remodeling efficacy. Nevertheless, the rankings were similar overall whether the panel was assayed by using peptide stock solutions prepared in 10% sucrose/H2O (FIGS. 1 and 2a) or peptide stock solutions prepared in 1:1 DMSO/H2O. From these preliminary structure-activity relationship (SAR) studies, we identified a pronounced sequence dependence for efficient plasma HDL remodeling (vide infra).
Human plasma remodeling: All procedures involving human samples were approved by TSRI Institutional Review Board. Procedures were modified from those reported in Troutt et al., J. Lipid Res. 49, 581-587, 2008. Blood samples from normal healthy human donors were obtained from TSRI Normal Blood Donor Program. EDTA-anticoagulated whole blood was centrifuged at 1500×g for 15 min within 1 h of being drawn from the donor. The plasma layer was aliquoted and used immediately or frozen at −80° C. for future use. Peptide stock solutions were prepared at ˜15 mM peptide in 50% DMSO for initial screenings, or at ˜2 mM peptide in 10% sucrose for remodeling assays at lower concentrations (FIG. 1) and cholesterol efflux assays (FIG. 2). Plasma samples (30 μL) were treated with peptide stocks, and the samples were incubated at 37° C. for 0.5-1 h, and then quenched by adding 270 μL of 50% sucrose (1:9 dilution). Samples were mixed with 6× native loading buffer (125 mM tris, pH 6.8, 0.02% bromophenol, 20% glycerol), of which 6 μL was loaded onto a 4-20% polyacrylamide gel. The molecular weight ladder used was High Molecular Weight Calibration Kit (Amersham Biosciences, #17-0445-01). […] The films were scanned and quantified by densitometry using the program LabWorks (v. 4.0.0.8). […]
A general note: A western blot detects proteins with antibodies after separation by electrophoresis.

The test system of test [1] is mouse macrophage J774 cells. Briefly: cholesterol efflux from mouse macrophage cells incubated with peptide-treated human plasma. It counts as cell-based. As to conditions: J774 cells, 2% apoB-depleted peptide-treated human plasma, 4 h; FIG. 2b. On the procedure: Selected cyclic D,L-α-peptides were further evaluated for their ability to promote cellular cholesterol efflux from mouse macrophage J774 cells. A main factor for HDL anti-atherogenicity is its role in reverse cholesterol transport, of which cellular cholesterol efflux is a critical component. To measure efflux mediated by the cyclic D,L-α-peptides, cholesterol-laden cells were incubated with peptide-treated plasma for 4 h, after which the level of cholesterol effluxed to the media was measured as described in Sankaranarayanan et al., J. Lipid Res. 52, 2332-2340, 2011.
Preparation of labeling medium: These procedures were modified from that reported in Sankaranarayanan et al., J. Lipid Res. 52, 2332-2340, 2011. The labeling medium was prepared by complexing the unlabeled cholesterol and BODIPY-cholesterol (20% of the total cholesterol) with methyl-β-cyclodextrin (CD) at a molar ratio of 1:40 (total cholesterol/CD). Unlabeled cholesterol and BODIPY-cholesterol were dissolved in chloroform and dried in a round bottom flask by rotor-evaporation in the dark to form a thin film. The cholesterol mixture was solubilized by adding 20 mM CD in MEM-HEPES buffer. The suspension was sonicated in a water bath (37° C.) for at 1 h, stirred at 37° C. for 3 h, filtered using a 0.45-μm syringe filter, and diluted with an equal volume of MEM-HEPES buffer containing 4 μg/mL Sandoz ACAT (acyl-CoA:cholesterol acyltransferase) inhibitor (Sigma). The final concentrations of BODIPY-cholesterol, unlabeled cholesterol, CD, and ACAT inhibitor in the labeling medium were 0.025 mM, 0.1 mM, 10 mM, and […], respectively.
Preparation of efflux medium: Just before the initiation of the efflux assays, the human plasma frozen at −80° C. was thawed, and 80 μL of plasma was incubated with 20 μL of cyclic peptide stocks (peptide stocks were 1-3 mg/mL in 10% sucrose) or the vehicle (10% sucrose) at 37° C. for 30 min. The treated plasma samples (100 μL) were then incubated with 25% PEG 8000 solution in 200 mM glycine buffer, pH 8.5 (40 μL) to precipitate apoB-containing lipoproteins (Asztalos et al., J. Lipid Res. 46, 2246-2253, 2005). After a 15-min incubation, the precipitate was removed by high-speed centrifugation (13,000 rpm, 10 min, 4° C.), and the supernatant (60 μL) was immediately diluted with MEM-HEPES buffer (1.5 mL) to give ˜2% whole plasma. This solution, containing the peptide remodeled-HDL lipoprotein fraction as cholesterol acceptors, was used as the efflux medium.
Cholesterol efflux from mouse macrophage cells: Mouse macrophage J774A.1 cells (TIB-67; American Type Culture Collection, Manassas, Va.) were seeded in 12-well culture plate at 3×10^5 cells/mL and cultured to 80-90% confluency in DMEM with 10% FBS at 5% CO2. Cells were rinsed twice with MEM-HEPES, incubated for 1 h with 0.25 ml of labeling medium containing CD/BODIPY-cholesterol/unlabeled cholesterol and 2 μg/mL Sandoz ACAT inhibitor, followed by washing twice with MEM-HEPES. The cholesterol-laden cells were equilibrated for 18 h in DMEM containing 5% LPDS, […] Sandoz ACAT inhibitor, and 0.3 mM Cpt-cAMP. After equilibration, the cells were washed twice with MEM-HEPES and incubated with 0.25 mL of efflux media for 4 h. At the end of the incubation time, the efflux media was removed and centrifuged (1200 rpm, 10 min) to remove floating cells, and the fluorescence intensity of 100 μL cell-free media was recorded using a Tecan GENios plate reader (excitation 485 nm, emission 535 nm). The obtained signals were background subtracted using the signal from unlabeled cells. The cell monolayers were rinsed twice with ice-cold MEM-HEPES and solubilized with 0.25 mL 1% cholic acid by shaking on a plate shaker for at least 4 h at room temperature; then the fluorescence intensity of 100 μL cell lysate was recorded and background subtracted using the signal from unlabeled cell lysate. […]

Non-standard residues stand in square brackets, D forms with d. dNMeW = CN[C@H](Cc1c[nH]c2ccccc12)C(=O)O; dNMeS = CN[C@H](CO)C(=O)O; Orn = NCCC[C@H](N)C(=O)O

As for “c[wLwErQrE] (cyclo([dW]L[dW]E[dR]Q[dR]E); SMILES CC(C)C[C@@H]1NC(=O)[C@@H](Cc2c[nH]c3ccccc23)NC(=O)[C@H](CCC(=O)O)NC(=O)[C@@H](CCCNC(=N)N)NC(=O)[C@H](CCC(N)=O)NC(=O)[C@@H](CCCNC(=N)N)NC(=O)[C@H](CCC(=O)O)NC(=O)[C@@H](Cc2c[nH]c3ccccc23)NC1=O) [SEQ ID NO:37]”, the “plasma HDL remodeling to lipid-poor HDL (in words)” value (“plasma HDL remodeling” for short) in the test with human plasma HDL is reported as “dramatically reduced compared to that of compound 1”. Also, the “promotion of cellular cholesterol efflux (in words)” value (“promotion” below) in test [1] is “dramatically reduced compared to that of compound 1”.

As to “c[wL^MewSeQ^MesO] (cyclo([dW]L[dNMeW]S[dE]Q[dNMeS][Orn])) [SEQ ID NO:14]”, the “plasma HDL remodeling” value in the test with human plasma HDL is “greatly diminished compared to the unmethylated parent, compound 4”. Further, the “promotion” value in test [1] is listed as “greatly diminished compared to the unmethylated parent, compound 4”.

As for “Ac-wLwSeQsO-NH2 (Ac-[dW]L[dW]S[dE]Q[dS][Orn]-NH2) [SEQ ID NO:45, acetylated linear peptide]”, in the test with human plasma HDL, the “plasma HDL remodeling” value is given as “failed to remodel plasma HDL”. Besides, in test [1], the “promotion” value is reported as “failed to remodel plasma HDL or promote cholesterol efflux”.

The record behind these values is patent publication US10092620B2, “Uses of cyclic peptides for treating and preventing atherosclerosis” (THE SCRIPPS RESEARCH INSTITUTE, priority 2013, dated 2018).
